In patent US20150065442A1, “REDUCIBLE SELF-ASSEMBLED MICELLE DRUG DELIVERY SYSTEMS” (University of Manitoba, priority 2012, published 2015):

Columns and labels:
[1] = system: MCF-7 human breast cancer cells; test: Cellular uptake of DOX by confocal laser scanning microscopy; format: cell-based
Method: Confocal laser scanning microscopy (CLSM) was employed to examine the cellular uptake of DOX by incubating MCF-7 human breast cancer cells with free DOX or DOX-loaded reducible self-assembled rPAE micelles or DOX-loaded non-reducible self-assembled nPAE micelles for 15 min and 2 h. First, the MCF-7 cells were seeded in 10-cm culture dishes at a density of 2×10^5 cells/dish, overlaid with cover slips, and cultured for 24 h. Then, the cells were exposed to DOX-loaded micelles. After the predetermined incubation times, the cover slips were removed and washed with cold PBS three times after which, the cells were fixed by 4% paraformaldehyde in PBS at room temperature for 15 min. After fixation, the cells were permeabilized by 0.1% Triton X-100 in PBS for 10 min and then rinsed with PBS three times. The cells were incubated in 10 uM BODIPY® FL phallacidin/1% (w/v) BSA solution for 20 min and then rinsed with PBS three times. The cells were then incubated in 10 μM Topro-3 for 20 min and then rinsed with PBS three times. The cover slips were set onto microscope slides and examined by CLSM.

[2] = system: hepatocellular carcinomatous HepG2 cells; test: as above; format: cell-based, human
Method: Confocal laser scanning microscopy (CLSM) was employed to examine the cellular uptake of DOX by incubating hepatocellular carcinomatous HepG2 cells with free DOX or the DOX-loaded micelles for 15 min, 2 h or 24 h. First, the HepG2 cells were seeded in culture dishes at a density of 2×10^5 cells/dish, overlaid with cover slips, and cultured for 24 h. Then, the cells were exposed to DOX-loaded micelles. After predetermined incubation times, the cover slips were removed and was washed with cold PBS three times after which, the cells were fixed by 4% paraformaldehyde in PBS at room temperature for 15 min. After fixation, the cells were permeabilized by 0.1% Triton X-100 in PBS for 10 min and then rinsed with PBS three times. The cells were incubated in 10 uM BODIPY® FL phallacidin/1% (w/v) BSA solution for 20 min and then rinsed with PBS three times (BODIPY is a registered trademark of Molecular Probes Inc., Eugene, Oreg., USA). The cells were then incubated in 10 μM Topro-3 for 20 min and then rinsed with PBS three times. The cover slips were set onto microscope slides and examined by CLSM.

HepG2 cells = test: MTT cytotoxicity (cell inhibition) assay; format: cell-based, human
Method: Hepatoma cells (HepG2) were used to investigate cell inhibition of DOX-loaded nanoparticles. HepG2 cells were obtained from the American Type Culture Collection and cultured with Dulbecco's Modified Eagle's Medium (DMEM, GIBCO) supplemented with 10% fetal bovine serum (FBS, GIBCO), 1.0×10^5 U/l penicillin (Sigma) and 100 mg/l streptomycin (Sigma) at 37° C. in 5% CO2.
The cytotoxicity of the copolymeric micelles loaded with DOX was determined using the MTT Cell Proliferation Kit (Biotium Inc., Hayward, Calif., USA). HepG2 cells were seeded into a 96-well tissue culture plate at a density of 8,000 cells per well and were incubated at 37° C. in 5% CO2. The growth medium was replaced with fresh DMEM after 24 h. Then the DOX-loaded PAE polymeric micelle solution and controls (free DOX and blank micelle solutions) were added into wells (six wells per sample). After 48 h of incubation, 10 μL MTT solution was added to each well and incubation continued for another 4 h. […] The absorbance of each well was measured using an ELISA plate reader at a test wavelength of 570 nm and a reference wavelength of 630 nm. The cell inhibition of samples was calculated as: […]
where Isample and Icontrol represent the intensity determined for cells treated with different samples and for control cells (untreated), respectively.

COc1cccc2c1C(=O)c1c(O)c3c(c(O)c1C2=O)C[C@@](O)(C(=O)CO)C[C@@H]3O[C@H]1C[C@H](N)[C@H](O)[C@H](C)O1 [free DOX, doxorubicin]
Intracellular DOX fluorescence ([1]; MCF-7, 15 min of incubation): fluorescing DOX molecules were observed intracellularly
Intracellular DOX fluorescence ([1]; MCF-7, 2 hr of incubation): accumulations of DOX molecules around the nuclei
Intracellular distribution of DOX fluorescence ([2]; HepG2, 15-min incubation): evenly distributed in cell cytoplasm and the nuclei
Intracellular distribution of DOX fluorescence ([2]; HepG2, 2 h exposure): DOX fluorescence accumulation was detected in and around the nuclei
Cell morphology after exposure ([2]; HepG2, 24 h exposure): nucleus became distinctively swollen and the cytoplasm shrank
Intracellular distribution of DOX fluorescence ([2]; HepG2, 24 h exposure): most of DOX fluorescence was distributed into the nucleus
Cytotoxicity, dose dependence (HepG2 cells): increases with increasing dose
